Data as given in patent US9227935B2, “Piperidine/piperazine derivatives” (Janssen Pharmaceutica N.V., priority 2007, dated 2016).

These compounds were tested against T1, human DGAT1 (Homo sapiens, UniProt O75907) (assay: DGAT1 FlashPlate inhibition assay with DGAT1 membrane preparations). Conditions: IC50 values expressed in M; pIC50 = -logIC50; inhibition of DGAT1 activity.
T1 construct: FLAG (N); made in house; host or cells: SF9 insect cells (baculovirus, pFastBac); total cell membranes used as the enzyme source
T1 sequence (O75907 1-488): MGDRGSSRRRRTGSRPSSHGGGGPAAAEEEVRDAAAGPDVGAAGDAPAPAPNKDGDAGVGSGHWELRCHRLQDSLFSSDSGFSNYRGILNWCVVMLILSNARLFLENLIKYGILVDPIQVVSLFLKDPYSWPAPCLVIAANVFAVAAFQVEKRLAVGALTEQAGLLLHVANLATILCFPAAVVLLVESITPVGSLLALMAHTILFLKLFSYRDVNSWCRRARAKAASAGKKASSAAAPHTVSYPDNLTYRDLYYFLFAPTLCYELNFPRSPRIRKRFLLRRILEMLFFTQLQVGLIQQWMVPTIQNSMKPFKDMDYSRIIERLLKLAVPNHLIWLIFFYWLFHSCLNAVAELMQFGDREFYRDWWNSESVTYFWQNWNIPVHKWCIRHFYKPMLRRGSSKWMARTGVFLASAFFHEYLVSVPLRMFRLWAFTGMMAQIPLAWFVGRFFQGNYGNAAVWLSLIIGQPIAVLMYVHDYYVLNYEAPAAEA
Assay type: biochemical
Text: The inhibiting activity of the present compounds on DGAT1 activity was screened in a single well procedure assay using DGAT1 comprising membrane preparations and DGAT1 substrate comprising micelles and determining formed radio-active triacylglycerol coming in close proximity of a flashplate surface by radioluminescence.
Said assay is described in full detail in WO2006/067071, the content of which is incorporated herein by reference.
By DGAT1 activity is meant the transfer of coenzyme A activated fatty acids to the 3-position of 1,2-diacylglycerols, thus forming a triglyceride molecule, by enzyme DGAT1.
human DGAT1 (NM012079.2) was cloned into the pFastBac vector, containing translation start, a FLAG-tag at the N-terminus as described in literature and a viral Kozak sequence (AAX) preceding the ATG to improve expression in insect cells. Expression was done as described in literature (Cases, S., Smith, S. J., Zheng, Y., Myers H. M., Lear, S. R., Sande, E., Novak, S., Collins, C., Welch, C. B., Lusis, A. J., Erickson, S. K. and Farese, R. V. (1998) Proc. Natl. Acad. Sci. USA 95, 13018-13023.) using SF9 cells.
72 h transfected SF9 cells were collected by centrifugation (13000 rpm-15 min-4° C.) and lysed in 2×500 ml lysis buffer (0.1M Sucrose, 50 mM KCl, 40 mM KH2PO4, 30 mM EDTA pH 7.2. Cells were homogenized by cell disruptor. After centrifugation 1380 rpm-15 min-4° C. (SN discarded), pellet was resuspended in 500 ml lysis buffer and total cell membranes collected by ultracentrifugation at 34000 rpm (100 000 g) for 60 min (4° C.). The collected membranes were resuspended in lysis buffer, divided in aliquots and stored with 10% glycerol at −80° C. until use.
Add 1 ml dioleoyl-sn-glycerol (10 mg/ml) to 10 ml of L-α-phosphatidylcholine (1 mg/ml) and 10 ml of L-α-phosphatidyl-L-serine (1 mg/ml) in a thick glass recipient. Evaporate under nitrogen and put on ice for 15 minutes. Reconstitute in 10 ml Tris/HCl (10 mM, pH 7.4) by sonication on ice. The sonification process consists of sonification cycles of 10 seconds in the sonification bath followed by 10 seconds cool down on ice and repeating this sonification cycle till a homogeneous solution is obtained (takes about 15 minutes). The thus obtained micelles are stored at −20° C. till later use and contain DAG at a final concentration of 1.61 mM.
• 50 mM Tris-HCl (pH 7.4), 150 mM MgCl2, 1 mM EDTA, 0.2% BSA. b) N-ethylmaleimide, 5M • Dissolve 5 g into a final volume of 8 ml DMSO 100% and store at −20° C. in aliquots till later use. c) Substrate mix (for 1 384 well plate=3840 μl) • 612 μl micelles stock (51 μM final) • 16.6 μl oleoylCoA 9.7 mM • 23 μl [^3H]-oleoylCoA (49 Ci/mmol, 500 μCi/ml) • 3188.4 μl Tris pH 7.4, 10 mM d) Enzyme mix (for 1 384 well plate=3520 μl) (5 μg/ml) • Add 11.73 μl of DGAT membrane stock (1500 μg/ml stock) to 3508 μl assay buffer. e) Stop mix (for 1 384 well plate=7.68 ml) (250 mM) • Add 384 μl of N-ethylmaleimide (5M) to 3.456 ml DMSO 100%, and further dilute 3.84 ml of said solution with 3.84 ml DMSO 10%. Method
DGAT activity in membrane preparations was assayed in 50 mM Tris-HCl (pH 7.4), 150 mM MgCl2, 1 mM EDTA and 0.2% BSA, containing 50 μM DAG, […] PC/PS and 8.4 μM [^3H]-oleoylCoA (at a specific activity of 30 nCi/well) in a final volume of 50 μl in 384-well format using the red shifted Basic Image FlashPlate™ (Perkin Elmer Cat. No. SMP400).
In detail, 10 μl enzyme mix and 10 μl substrate mix were added to 30 μl of assay buffer, optionally in the presence of 1 μl DMSO (blank and controls) or 1 μl of the compound to be tested. This reaction mixture was incubated for 120 minutes at 37° C. and the enzymatic reaction stopped by adding 20 μl of the stop mix. The plates were sealed and the vesicles allowed to settle overnight at room temperature. Plates were centrifuged for 5 minutes at 1500 rpm and measured in Leadseeker. […]

| Compound | IC50 [nM] |
| --- | --- |
| O=C(Nc1ccc(N2CCN(C(=O)Nc3ccccc3Cl)CC2)cc1)c1ccccc1-c1ccc(C(F)(F)F)cc1 [Compound 89] | 1700 |
| O=C(Nc1ccc(N2CCN(C(=O)Nc3ccccc3F)CC2)cc1)c1ccccc1-c1ccc(C(F)(F)F)cc1 [Compound 90] | 2950 |
| O=C(Nc1ccc(N2CCN(C(=O)Nc3ccccc3I)CC2)cc1)c1ccccc1-c1ccc(C(F)(F)F)cc1 [Compound 91] | 1510 |
| O=C(Nc1ccc(N2CCN(C(=O)Nc3ccccc3[N+](=O)[O-])CC2)cc1)c1ccccc1-c1ccc(C(F)(F)F)cc1 [Compound 92] | 2340 |
| CSc1ccccc1NC(=O)N1CCN(c2ccc(NC(=O)c3ccccc3-c3ccc(C(F)(F)F)cc3)cc2)CC1 [Compound 93] | 4790 |
| Cc1cccc(Cl)c1NC(=O)N1CCN(c2ccc(NC(=O)c3ccccc3-c3ccc(C(F)(F)F)cc3)cc2)CC1 [Compound 94] | 148 |
| Cc1cccc([N+](=O)[O-])c1NC(=O)N1CCN(c2ccc(NC(=O)c3ccccc3-c3ccc(C(F)(F)F)cc3)cc2)CC1 [Compound 95] | 407 |
| O=C(Nc1ccc(N2CCN(C(=O)Nc3c(F)cc(F)cc3Br)CC2)cc1)c1ccccc1-c1ccc(C(F)(F)F)cc1 [Compound 96] | 525 |
| O=C(Nc1ccc(N2CCN(C(=O)Nc3c(Br)cc(Br)cc3Br)CC2)cc1)c1ccccc1-c1ccc(C(F)(F)F)cc1 [Compound 97] | 490 |
| O=C(Nc1ccc(N2CCN(C(=O)Nc3c(F)cc(Br)cc3F)CC2)cc1)c1ccccc1-c1ccc(C(F)(F)F)cc1 [Compound 98] | 2630 |
| O=C(Nc1ccc(N2CCN(C(=O)Nc3c(Cl)cc(Cl)cc3Cl)CC2)cc1)c1ccccc1-c1ccc(C(F)(F)F)cc1 [Compound 99] | 1820 |
| Cc1cc(Br)cc(C)c1NC(=O)N1CCN(c2ccc(NC(=O)c3ccccc3-c3ccc(C(F)(F)F)cc3)cc2)CC1 [Compound 100] | 1550 |
| Cc1ccc([N+](=O)[O-])c(NC(=O)N2CCN(c3ccc(NC(=O)c4ccccc4-c4ccc(C(F)(F)F)cc4)cc3)CC2)c1C [Compound 101] | 525 |
| Cc1cc(C)c(NC(=O)N2CCN(c3ccc(NC(=O)c4ccccc4-c4ccc(C(F)(F)F)cc4)cc3)CC2)c(Cl)c1 [Compound 102] | 170 |
| Cc1cc(C)c(NC(=O)N2CCN(c3ccc(NC(=O)c4ccccc4-c4ccc(C(F)(F)F)cc4)cc3)CC2)c(Br)c1 [Compound 103] | 200 |
| Cc1cc(C)c(NC(=O)N2CCN(c3ccc(NC(=O)c4ccccc4-c4ccc(C(F)(F)F)cc4)cc3)CC2)c(C)c1Br [Compound 104] | 2000 |
| O=C(Nc1ccc(N2CCN(C(=O)Nc3ccccc3Oc3ccccc3)CC2)cc1)c1ccccc1-c1ccc(C(F)(F)F)cc1 [Compound 105] | 3310 |
| O=C(Nc1ccc(N2CCN(C(=O)Nc3ccc4c(c3)OCCO4)CC2)cc1)c1ccccc1-c1ccc(C(F)(F)F)cc1 [Compound 106] | 7240 |
| C=CCNC(=O)N1CCC(c2ccc(NC(=O)c3ccccc3-c3ccc(C(F)(F)F)cc3)cc2)CC1 [Compound 107] | 2450 |
| CCc1ccccc1NC(=O)N1CCC(c2ccc(NC(=O)c3ccccc3-c3ccc(C(F)(F)F)cc3)cc2)CC1 [Compound 108] | 4470 |

| Compound | IC50 [nM] |
| --- | --- |
| CC(C)c1ccccc1NC(=O)N1CCC(c2ccc(NC(=O)c3ccccc3-c3ccc(C(F)(F)F)cc3)cc2)CC1 [Compound 109] | 9550 |
| CCc1cccc(C)c1NC(=O)N1CCC(c2ccc(NC(=O)c3ccccc3-c3ccc(C(F)(F)F)cc3)cc2)CC1 [Compound 110] | 955 |
| COc1cccc(OC)c1NC(=O)N1CCC(c2ccc(NC(=O)c3ccccc3-c3ccc(C(F)(F)F)cc3)cc2)CC1 [Compound 111] | 4570 |
| Cc1cc(C)c(NC(=O)N2CCC(c3ccc(NC(=O)c4ccccc4-c4ccc(C(F)(F)F)cc4)cc3)CC2)c(C)c1 [Compound 112] | 269 |
| Cc1cccc(Cl)c1NC(=O)N1CCC(c2ccc(NC(=O)c3ccccc3-c3ccc(C(F)(F)F)cc3)cc2)CC1 [Compound 113] | 1070 |
| O=C(Nc1ccc(C2CCN(C(=O)Nc3c(F)cc(F)cc3Br)CC2)cc1)c1ccccc1-c1ccc(C(F)(F)F)cc1 [Compound 114] | 1230 |
| Cc1cc(Br)cc(C)c1NC(=O)N1CCC(c2ccc(NC(=O)c3ccccc3-c3ccc(C(F)(F)F)cc3)cc2)CC1 [Compound 115] | 1950 |
| Cc1ccc([N+](=O)[O-])c(NC(=O)N2CCC(c3ccc(NC(=O)c4ccccc4-c4ccc(C(F)(F)F)cc4)cc3)CC2)c1C [Compound 116] | 2190 |
| Cc1cc(C)c(NC(=O)N2CCC(c3ccc(NC(=O)c4ccccc4-c4ccc(C(F)(F)F)cc4)cc3)CC2)c(Cl)c1 [Compound 117] | 316 |
| Cc1cc(C)c(NC(=O)N2CCC(c3ccc(NC(=O)c4ccccc4-c4ccc(C(F)(F)F)cc4)cc3)CC2)c(Br)c1 [Compound 118] | 631 |
| CCCNC(=O)N1CC=C(c2ccc(NC(=O)c3ccccc3-c3ccc(C(F)(F)F)cc3)cc2)CC1 [Compound 119] | 4680 |
| O=C(Nc1ccc(C2=CCN(C(=O)NCC3CCCCC3)CC2)cc1)c1ccccc1-c1ccc(C(F)(F)F)cc1 [Compound 120] | 4270 |
| O=C(Nc1ccc(C2=CCN(C(=O)NCc3ccccc3)CC2)cc1)c1ccccc1-c1ccc(C(F)(F)F)cc1 [Compound 121] | 4900 |
| O=C(Nc1ccc(C2=CCN(C(=O)NCCCc3ccccc3)CC2)cc1)c1ccccc1-c1ccc(C(F)(F)F)cc1 [Compound 122] | 1510 |
| COc1ccc(CNC(=O)N2CC=C(c3ccc(NC(=O)c4ccccc4-c4ccc(C(F)(F)F)cc4)cc3)CC2)cc1 [Compound 123] | 4170 |
| CN(C)c1ccc(NC(=O)N2CC=C(c3ccc(NC(=O)c4ccccc4-c4ccc(C(F)(F)F)cc4)cc3)CC2)cc1 [Compound 124] | 6760 |
| CCOC(=O)c1cccc(C(=O)Nc2ccc(N3CCN(C(=O)Nc4c(Cl)cccc4Cl)CC3)cc2)c1 [Compound 125] | 2.82 |
| O=C(Nc1ccc(N2CCN(C(=O)Nc3c(Cl)cccc3Cl)CC2)cc1)c1ccc(-c2ccccn2)cc1 [Compound 126] | 9.55 |
| CC(C)OC(=O)c1ccc(-c2cccc(C(=O)Nc3ccc(N4CCN(C(=O)Nc5c(Cl)cccc5Cl)CC4)cc3)c2)cc1 [Compound 127] | 25.1 |
| Cc1cccc(C)c1NC(=O)N1CCC(c2ccc(NC(=O)c3ccccc3-c3ccc(C(F)(F)F)cc3)cc2)CC1 [Compound 128] | 661 |
